Laboratory results taken from US10597388B2, “Pyridazinone herbicides” (FMC CORPORATION, priority 2014, dated 2020).

How the values were obtained:
Experiment in all cases: Test E greenhouse herbicide test, pre- and postemergence
Assay type in all cases: in vivo
[1] = tested on: lambsquarters (Chenopodium album); conditions: Preemergence
How it was run: (§1)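 Visual rating vs untreated controls, 0 = no effect, 100 = complete control, after 14–21 d greenhouse. Pre: seeded silt loam treated with surfactant-containing solvent formulation. Post: 1–4-leaf plants (2–18 cm) in peat/vermiculite medium.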

kochia (Kochia scoparia) = tested on: kochia (Kochia scoparia)
How it was run: as §1

[2] = tested on: nightshade (eastern black nightshade, Solanum ptycanthum); conditions: Preemergence
How it was run: as §1

[3] = tested on: panicum, fall (fall panicum, Panicum dichotomiflorum)
How it was run: as §1

[4] = tested on: foxtail, green (green foxtail, Setaria viridis); conditions: Preemergence
How it was run: as §1

[5] = tested on: sandbur (southem sandbur, Cenchrus echinatus)
How it was run: as §1

[6] = tested on: crabgrass, large (large crabgrass, Digitaria sanguinalis); conditions: Preemergence
How it was run: as §1

[7] = tested on: Italian ryegrass (Lolium multiflorum)
How it was run: as §1

corn (Zea mays) = tested on: corn (Zea mays)
How it was run: as §1

[8] = tested on: goosegrass (Eleusine indica); conditions: Preemergence
How it was run: as §1

[9] = tested on: surinam grass (Brachiaria decumbens); conditions: Preemergence
How it was run: as §1

[10] = tested on: crabgrass, Brazilian (Brazilian crabgrass, Digitaria horizontalis)
How it was run: as §1

[11] = tested on: foxtail, giant (giant foxtail, Setaria faberii); conditions: Preemergence
How it was run: as §1

[12] = tested on: velvetleaf (Abutilon theophrasti); conditions: Preemergence
How it was run: as §1

[13] = tested on: arrowleaf sida (Sida rhombifolia)
How it was run: as §1

[14] = tested on: barnyardgrass (Echinochloa crus-galli)
How it was run: as §1

[15] = tested on: horseweed (Conyza canadensis)
How it was run: as §1

[16] = 62 g ai/ha, scale 0 to 100 (0 no effect, 100 complete control)
[17] = 31 g ai/ha, scale 0 to 100, 0 no effect, 100 complete control
[18] = 125 g ai/ha, visual, scale 0 no effect to 100 complete control
[19] = 250 g ai/ha, visual, scale 0 no effect to 100 complete control
[20] = 62 g ai/ha, Preemergence, scale 0 to 100 (0 no effect, 100 complete control)
[21] = 125 g ai/ha, Postemergence, scale 0 to 100 (0 no effect, 100 complete control)
[22] = 250 g ai/ha, Postemergence, scale 0 to 100 (0 no effect, 100 complete control)
[23] = Preemergence, 31 g ai/ha, scale 0 to 100, 0 no effect, 100 complete control
[24] = Preemergence, 125 g ai/ha, visual, scale 0 no effect to 100 complete control
[25] = Preemergence, 250 g ai/ha, visual, scale 0 no effect to 100 complete control
[26] = 125 g ai/ha, scale 0 to 100 (0 no effect, 100 complete control)
[27] = 125 g ai/ha, Preemergence, scale 0 to 100 (0 no effect, 100 complete control)

Compound: CCC(=O)Oc1c(C)nn(C)c(=O)c1-c1c(C)sc2c(C)cc(C)cc12 [Compound 28]
- Plant response rating, Lambsquarters [1, 16]: 100
- Plant response rating, Lambsquarters [1, 17]: 100
- Plant response rating, Lambsquarters [1, 18]: 100
- Plant response rating, Lambsquarters [1, 19]: 98
- Plant response rating, Kochia (kochia (Kochia scoparia); [20]): 0
- Plant response rating, Kochia (kochia (Kochia scoparia); [21]): 75
- Plant response rating, Kochia (kochia (Kochia scoparia); [22]): 90
- Plant response rating, Kochia (kochia (Kochia scoparia); [23]): 0
- Plant response rating, Kochia (kochia (Kochia scoparia); [24]): 60
- Plant response rating, Kochia (kochia (Kochia scoparia); [25]): 100
- Plant response rating, Nightshade [2, 16]: 98
- Plant response rating, Nightshade [2, 26]: 98
- Plant response rating, Nightshade [2, 17]: 80
- Plant response rating, Nightshade [2, 19]: 100
- Plant response rating, Panicum, Fall [3, 20]: 95
- Plant response rating, Panicum, Fall [3, 21]: 70
- Plant response rating, Panicum, Fall [3, 27]: 98
- Plant response rating, Panicum, Fall [3, 22]: 90
- Plant response rating, Panicum, Fall [3, 23]: 90
- Plant response rating, Panicum, Fall [3, 25]: 100
- Plant response rating, Foxtail, Green [4, 16]: 98
- Plant response rating, Foxtail, Green [4, 17]: 65
- Plant response rating, Foxtail, Green [4, 18]: 100
- Plant response rating, Foxtail, Green [4, 19]: 100
- Plant response rating, Sandbur [5, 20]: 65
- Plant response rating, Sandbur [5, 21]: 60
- Plant response rating, Sandbur [5, 27]: 80
- Plant response rating, Sandbur [5, 22]: 80
- Plant response rating, Sandbur [5, 23]: 15
- Plant response rating, Sandbur [5, 25]: 85
- Plant response rating, Crabgrass, Large [6, 16]: 35
- Plant response rating, Crabgrass, Large [6, 18]: 90
- Plant response rating, Crabgrass, Large [6, 19]: 90
- Plant response rating, Ryegrass, Italian [7, 20]: 80
- Plant response rating, Ryegrass, Italian [7, 21]: 75
- Plant response rating, Ryegrass, Italian [7, 27]: 95
- Plant response rating, Ryegrass, Italian [7, 22]: 75
- Plant response rating, Ryegrass, Italian [7, 23]: 70
- Plant response rating, Ryegrass, Italian [7, 25]: 100
- Plant response rating, Corn (corn (Zea mays); [20]): 0
- Plant response rating, Corn (corn (Zea mays); [21]): 5
- Plant response rating, Corn (corn (Zea mays); [22]): 5
- Plant response rating, Corn (corn (Zea mays); [23]): 0
- Plant response rating, Corn (corn (Zea mays); [24]): 0
- Plant response rating, Corn (corn (Zea mays); [25]): 0
- Plant response rating, Goosegrass [8, 16]: 60
- Plant response rating, Goosegrass [8, 17]: 35
- Plant response rating, Goosegrass [8, 18]: 75
- Plant response rating, Goosegrass [8, 19]: 90
- Plant response rating, Surinam Grass [9, 16]: 98
- Plant response rating, Surinam Grass [9, 26]: 100
- Plant response rating, Surinam Grass [9, 17]: 85
- Plant response rating, Surinam Grass [9, 19]: 98
- Plant response rating, Crabgrass, Brazil [10, 20]: 70
- Plant response rating, Crabgrass, Brazil [10, 21]: 50
- Plant response rating, Crabgrass, Brazil [10, 22]: 60
- Plant response rating, Crabgrass, Brazil [10, 23]: 70
- Plant response rating, Crabgrass, Brazil [10, 24]: 80
- Plant response rating, Crabgrass, Brazil [10, 25]: 90
- Plant response rating, Foxtail, Giant [11, 16]: 100
- Plant response rating, Foxtail, Giant [11, 17]: 85
- Plant response rating, Foxtail, Giant [11, 18]: 100
- Plant response rating, Foxtail, Giant [11, 19]: 100
- Plant response rating, Velvetleaf [12, 16]: 35
- Plant response rating, Velvetleaf [12, 26]: 70
- Plant response rating, Velvetleaf [12, 17]: 0
- Plant response rating, Velvetleaf [12, 19]: 100
- Plant response rating, Arrowleaf Sida [13, 20]: 0
- Plant response rating, Arrowleaf Sida [13, 21]: 60
- Plant response rating, Arrowleaf Sida [13, 22]: 60
- Plant response rating, Arrowleaf Sida [13, 24]: 50
- Plant response rating, Arrowleaf Sida [13, 25]: 70
- Plant response rating, Barnyardgrass [14, 20]: 20
- Plant response rating, Barnyardgrass [14, 21]: 50
- Plant response rating, Barnyardgrass [14, 22]: 60
- Plant response rating, Barnyardgrass [14, 23]: 20
- Plant response rating, Barnyardgrass [14, 24]: 65
- Plant response rating, Barnyardgrass [14, 25]: 90
- Plant response rating, Horseweed [15, 20]: 100
- Plant response rating, Horseweed [15, 21]: 80
- Plant response rating, Horseweed [15, 22]: 80
- Plant response rating, Horseweed [15, 23]: 100
- Plant response rating, Horseweed [15, 24]: 100
- Plant response rating, Horseweed [15, 25]: 98
